# Test results reported in PMC7419010 (PLoS Pathogens, 2020).
# “Also recorded” adds a separate entry of the source. Read-outs that look alike come from different tables or passages of the source.
# Experiments:
# Lsa-nAChR2 (α3β1β2) = Lsa-nAChR2 (α3β1β2) (Lepeophtheirus salmonis, UniProt A0A7S5PZ03+A0A7S5PZ05+A0A7S5Q7H3); assay: cell-based; assay type: cell-based; settings: for type of effect on the receptor (agonist / partial-agonist / super-agonist / no effect): dose-response; for agonist screening (pre- and co-application protocol): 1 μM; for Max peak (% Ach): maximal peak current compared to ACh 100 μM
# Method: (§1) Capped cRNAs were synthesized (T7 mMessage mMachine kit, Ambion, Austin, TX, USA) from the linearized vectors containing the different subunits according to the manufacturer’s protocol. cRNA samples were stored at -80°C until use. Oocytes were ordered from Ecocyte (Germany). Oocytes were microinjected using a Roboinject automatic injection system (Multi Channel Systems, Reutlingen, Germany) with 15–25 nl of cRNA solution (30–300 ng/μl per subunit) and then incubated at 18°C in sterile filtered Barth solution containing: NaCl (88 mM), KCl (1 mM), NaHCO3 (2.4 mM), HEPES (10 mM, pH 7.5), MgSO4·7H2O (0.82 mM), Ca(NO3)2·4H2O (0.33 mM), CaCl2·6H2O (0.41 mM), at pH 7.4, and supplemented with 20 μg/ml of kanamycin, 100 U/ml benzylpenicillin and 100 μg/ml streptomycin. Recordings were made 3–5 days post-cRNA injection.
# (§2) Oocytes were impaled with two electrodes filled with 3 M KCl, and their membrane potentials were maintained at -80 mV throughout the experiment. Currents evoked by ACh or drugs were recorded using an automated process equipped with standard two-electrode voltage-clamp configuration (HiClamp, MultiChannel Systems). The principle of this system differs from standard electrophysiology because, instead of applying the compound in the perfusion, the oocyte is moved into a well from a 96-well microtiter plate containing the desired solution. Data were captured at 100 Hz, filtered at 10 Hz, and analyzed using proprietary data acquisition and analysis software running under Matlab (Mathworks Inc., Natick, MA, USA). Additional analyses were performed in Excel (Microsoft, Redmond, WA, USA). […] Concentration-activation curves were fitted with the equation: Y=100/1+10^H(logEC50−X) (1) where Y is the normalized response, logEC50 is the logarithm of the concentration of agonist eliciting half-maximal current amplitude, X is the log of dose or concentration, and H is the slope factor or Hill slope. Individual curves were standardized to the initial ACh (100 μM) application amplitude and subsequently averaged. EC50 values were determined from the mean of at least 3 or more cells.
# (§3) Dose-response curves were obtained by sequential applications for 10s of increasing concentrations of ACh or drugs to oocytes expressing Lsa-nAChR1 or Lsa-nAChR2. A total time of 90 s time was allowed between applications for the channel to recover from any desensitization. To test the antagonistic effect of DHbE (Fig 5) and for the screening protocol (Fig 6), cells that evoked a significant current with ACh were exposed to the test compounds at 10 μM respectively 1 μM using a pre-application of 45 s and co-application of 10 s with ACh (1 μM).
# Lsa-nAChR1 (α1α2β1β2) = Lsa-nAChR1 (α1α2β1β2) (Lepeophtheirus salmonis, UniProt A0A7S5PZ05+A0A7S5Q3W4+A0A7S5Q7H3+A0A7S5U9A3); assay: cell-based; assay type: cell-based; settings: for agonist screening (pre- and co-application protocol): 1 μM; for Emax: read-out: Max peak (% Ach); for type of effect on the receptor (agonist / partial-agonist / no effect): dose-response; for inward current on average: 10 μM sazetidine A
# Method: as §1, §2, §3
# L. salmonis (preadult 2) = assay: In-vivo exposure of preadult salmon lice to 1 mg/L for 24 h; parameters: species or system Lepeophtheirus salmonis; settings: for Efficacy at 1.0 mg/L (%): preadult 2 parasites
# Method: The exposure of preadult 2 parasites were conducted as described in [48]. The parasites originated from a salmon louse strain sensitive to all tested compounds [49]. The cultivation of salmon lice was conducted at the NIVA Marine Research Station Solbergstrand in the Oslofjord. Laboratory reared Atlantic salmon of were kept in 1 m^3 tanks supplied with running seawater, salinity 33–35 parts per thousand, temperature 7–9°C. Salmon lice egg strings were harvested from adult females and hatched according to [50]. The preadult salmon lice were harvested on the day of exposure. Fish were anaesthetized with 100 mg/L metacaine for 2 min. The parasites were gently removed from the fish with forceps, placed directly in glass containers filled with 1000 mL filtered seawater and exposed to the compounds within 4 h.
# Each group of parasites was exposed to 1 mg/L of the test substance for 24 h. The compounds were dissolved in DMSO and an emulsifier was added immediately before dilution with water. The bottles were finally incubated at 10°C according to [49], with continuous air supply, for 24 h.
# After the incubation period was over, the solution with parasites was poured out through a funnel containing a filter. Parasites remaining attached to the bottle wall were classified as alive. Immobilized parasites were collected from the filter. […] All parasites in the two groups were counted and classified according to sex and developmental stage.
# [1] = Xenopus oocytes, 1:1 (α:β) ratio
# [2] = EC50 (nM), Xenopus oocytes, 1:1 (α:β) ratio
# [3] = calculated EC50, text values in μM, 1:1 (α:β) ratio
# Chain of Lsa-nAChR1 (α1α2β1β2) (A0A7S5PZ05 entry or part of it): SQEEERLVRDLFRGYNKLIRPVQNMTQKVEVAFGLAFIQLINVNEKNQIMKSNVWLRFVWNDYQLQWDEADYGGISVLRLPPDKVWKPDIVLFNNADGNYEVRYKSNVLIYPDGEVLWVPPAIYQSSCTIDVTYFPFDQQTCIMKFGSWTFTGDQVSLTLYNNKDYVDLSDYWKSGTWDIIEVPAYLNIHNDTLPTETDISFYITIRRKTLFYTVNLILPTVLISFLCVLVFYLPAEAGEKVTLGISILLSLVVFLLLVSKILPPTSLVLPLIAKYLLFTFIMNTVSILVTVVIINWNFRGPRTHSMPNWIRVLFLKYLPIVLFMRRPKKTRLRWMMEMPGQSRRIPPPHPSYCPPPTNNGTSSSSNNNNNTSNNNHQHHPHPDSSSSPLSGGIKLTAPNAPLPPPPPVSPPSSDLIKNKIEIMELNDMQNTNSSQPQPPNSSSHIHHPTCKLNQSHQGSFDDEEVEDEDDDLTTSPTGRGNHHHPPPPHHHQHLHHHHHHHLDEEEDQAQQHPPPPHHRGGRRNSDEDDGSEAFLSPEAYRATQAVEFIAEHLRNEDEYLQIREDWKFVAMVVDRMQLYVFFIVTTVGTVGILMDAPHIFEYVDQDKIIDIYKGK
# Chain of Lsa-nAChR1 (α1α2β1β2) (A0A7S5Q3W4 entry or part of it): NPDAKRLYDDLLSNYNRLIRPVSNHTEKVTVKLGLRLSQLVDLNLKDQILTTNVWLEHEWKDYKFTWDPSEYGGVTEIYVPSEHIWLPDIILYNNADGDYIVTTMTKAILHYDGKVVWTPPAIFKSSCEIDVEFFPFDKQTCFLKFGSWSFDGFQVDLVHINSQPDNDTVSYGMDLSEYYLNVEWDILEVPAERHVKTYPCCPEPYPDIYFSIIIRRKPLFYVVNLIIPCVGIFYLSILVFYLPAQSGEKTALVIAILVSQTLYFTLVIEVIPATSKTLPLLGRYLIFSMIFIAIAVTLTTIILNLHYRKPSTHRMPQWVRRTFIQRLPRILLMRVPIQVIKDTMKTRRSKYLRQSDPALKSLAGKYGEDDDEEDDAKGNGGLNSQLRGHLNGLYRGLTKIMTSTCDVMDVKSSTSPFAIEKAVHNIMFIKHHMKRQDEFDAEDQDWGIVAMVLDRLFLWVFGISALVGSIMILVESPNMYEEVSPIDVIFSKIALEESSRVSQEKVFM
# Chain of Lsa-nAChR1 (α1α2β1β2) (A0A7S5U9A3 entry or part of it): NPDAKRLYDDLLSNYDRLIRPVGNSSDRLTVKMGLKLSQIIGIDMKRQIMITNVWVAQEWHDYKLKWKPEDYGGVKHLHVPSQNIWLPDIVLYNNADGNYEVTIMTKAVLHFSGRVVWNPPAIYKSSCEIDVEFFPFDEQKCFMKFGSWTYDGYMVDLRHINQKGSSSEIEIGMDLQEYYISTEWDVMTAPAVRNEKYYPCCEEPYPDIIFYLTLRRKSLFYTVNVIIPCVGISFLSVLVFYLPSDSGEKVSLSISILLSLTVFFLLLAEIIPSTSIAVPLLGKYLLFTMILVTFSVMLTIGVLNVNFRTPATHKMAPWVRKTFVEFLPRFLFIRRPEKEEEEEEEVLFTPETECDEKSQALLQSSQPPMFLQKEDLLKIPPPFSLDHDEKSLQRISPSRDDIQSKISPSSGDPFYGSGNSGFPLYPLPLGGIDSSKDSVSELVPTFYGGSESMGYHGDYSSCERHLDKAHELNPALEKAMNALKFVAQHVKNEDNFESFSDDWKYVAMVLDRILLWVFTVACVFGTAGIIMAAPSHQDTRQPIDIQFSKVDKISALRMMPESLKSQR
# Chain of Lsa-nAChR1 (α1α2β1β2) (A0A7S5Q7H3 entry or part of it): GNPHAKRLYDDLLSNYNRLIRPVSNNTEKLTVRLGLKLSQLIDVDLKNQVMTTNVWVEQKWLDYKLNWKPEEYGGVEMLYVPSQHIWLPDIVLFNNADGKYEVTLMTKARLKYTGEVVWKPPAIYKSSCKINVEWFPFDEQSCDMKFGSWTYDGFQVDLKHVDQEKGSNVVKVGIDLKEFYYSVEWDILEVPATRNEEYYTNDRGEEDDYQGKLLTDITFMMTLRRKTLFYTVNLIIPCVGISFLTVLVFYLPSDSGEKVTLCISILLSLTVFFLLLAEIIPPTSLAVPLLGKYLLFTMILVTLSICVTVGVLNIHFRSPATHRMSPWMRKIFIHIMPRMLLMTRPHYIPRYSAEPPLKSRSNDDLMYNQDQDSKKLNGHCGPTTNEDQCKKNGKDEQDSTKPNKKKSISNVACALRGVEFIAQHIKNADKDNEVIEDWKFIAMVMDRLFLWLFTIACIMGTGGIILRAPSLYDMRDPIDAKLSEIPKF
Compound,EC50 (nM) (Lsa-nAChR2 (α3β1β2); [1]),EC50 (nM) (Lsa-nAChR1 (α1α2β1β2); [1]),type of effect on the receptor (agonist / partial-agonist / super-agonist / no effect) (Lsa-nAChR2 (α3β1β2); 1:1 (α:β) ratio),EC50 (Lsa-nAChR1 (α1α2β1β2)),agonist screening (pre- and co-application protocol) (Lsa-nAChR1 (α1α2β1β2); 1:1 (α:β) ratio),Emax (Lsa-nAChR1 (α1α2β1β2)),Efficacy at 1.0 mg/L (%) (L. salmonis (preadult 2)),type of effect on the receptor (agonist / partial-agonist / no effect) (Lsa-nAChR1 (α1α2β1β2); 1:1 (α:β) ratio),agonist screening (pre- and co-application protocol) (Lsa-nAChR2 (α3β1β2); 1:1 (α:β) ratio),Max peak (% Ach) (Lsa-nAChR2 (α3β1β2); 1:1 (α:β) ratio),further results
Emamectin,No effect,No effect,–,–,–,–,–,–,–,–,–
O=[N+]([O-])NC1=NCCN1Cc1ccc(Cl)nc1 [Imidacloprid],No effect,–,no effect; also recorded: did not affect; also recorded: did not demonstrate any ex-vivo effect,69 nM,agonists,31.8%,100.0%,–,–,–,lethal effect / mortality of preadult parasites (L. salmonis (preadult 2)): significant lethal effect; also recorded: high mortality rates
C/C(=N\C#N)N(C)Cc1ccc(Cl)nc1 [Acetamiprid],No effect,–,did not affect; also recorded: did not demonstrate any ex-vivo effect,10300 nM,agonists,34.1%,89.5%,partial-agonist,–,–,lethal effect / mortality of preadult parasites (L. salmonis (preadult 2)): significant lethal effect; also recorded: high mortality rates
CC1(C)[C@H](C(=O)O[C@H](C#N)c2cccc(Oc3ccccc3)c2)[C@@H]1C=C(Br)Br [Deltamethrin],No effect,No effect,–,–,–,–,–,–,–,–,–
CN/C(=N/CC1CCOC1)N[N+](=O)[O-] (stereo not drawn) [Dinotefuran],–,–,super-agonist,–,agonists,69.8%,100.0%,partial-agonists,agonists,110.2%,EC50 (Lsa-nAChR2 (α3β1β2); [2]): 757 nM; EC50 (Lsa-nAChR1 (α1α2β1β2); [2]): 220 nM
CC1(C)C(C=C(Cl)Cl)C1C(=O)OC(C#N)c1cccc(Oc2ccccc2)c1 (stereo not drawn) [Cypermethrin],No effect,No effect,–,–,–,–,–,–,–,–,–
CN/C(=N\[N+](=O)[O-])NCc1cnc(Cl)s1 [Clothianidin],–,–,partial-agonists,37 nM,agonists,41.9%,54.3%,partial-agonists,agonists,75.4%,EC50 (Lsa-nAChR2 (α3β1β2)): 81 nM
CCN(Cc1ccc(Cl)nc1)/C(=C/[N+](=O)[O-])NC [Nitenpyram],–,–,partial-agonists,45 nM,agonists,27.4%,17.7%,partial-agonists,agonists,70.1%,EC50 (Lsa-nAChR2 (α3β1β2)): 381 nM
COP(=O)(OC)SCn1c(=O)oc2cc(Cl)cnc21 [Azamethiphos],No effect,No effect,–,–,–,–,–,–,–,–,–
N#C/N=C1\SCCN1Cc1ccc(Cl)nc1 [Thiacloprid],No effect,–,did not show any effect,–,agonists,6.1%,100.0%,partial-agonist,agonists,–,"type of effect on the receptor (agonist / partial-agonist / super-agonist / no effect) (Lsa-nAChR2 (α3β1β2); 1:1 (α:β) ratio, listed as thiacloprid): did not affect; also recorded: did not demonstrate any ex-vivo effect; EC50 (Lsa-nAChR1 (α1α2β1β2); [2]): 12 nM; lethal effect / mortality of preadult parasites (L. salmonis (preadult 2)): significant lethal effect; also recorded: high mortality rates"
CN1CCC[C@H]1c1cccnc1 [Nicotine],–,–,partial-agonist,–,–,27.9%,–,partial-agonist,–,16.1%,EC50 (Lsa-nAChR2 (α3β1β2); [2]): 9980 nM; EC50 (Lsa-nAChR2 (α3β1β2); [3]): 9980 nM; EC50 (Lsa-nAChR1 (α1α2β1β2); [2]): 3950 nM; EC50 (Lsa-nAChR1 (α1α2β1β2); [3]): 3950 nM
"OCCCCC#Cc1cncc(OC[C@@H]2CCN2)c1 [sazetidine A, Sazetidine A]",–,–,–,–,–,–,–,–,–,–,"inward current on average (Lsa-nAChR2 (α3β1β2); 10 μM sazetidine A, α:β = 10:1, n = 3 (assignment uncertain)): 0.50 μA; responsiveness to sazetidine A (Lsa-nAChR2 (α3β1β2); 10 μM, α:β = 10:1): responsive; inward current on average (Lsa-nAChR1 (α1α2β1β2); α:β = 1:10, n = 3): 0.22 μA; inward current on average (Lsa-nAChR1 (α1α2β1β2); α:β = 10:1, n = 3): 0.24 μA"
CN1COCN(Cc2cnc(Cl)s2)/C1=N\[N+](=O)[O-] [Thiamethoxam],No effect,No effect,–,–,–,–,0.0%,–,–,–,–
